Assay results published in PubChem BioAssay (NCI).
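Cells were grown in 96-well plates and exposed to each compound for 48 hours at five concentrations; endpoints were interpolated linearly between bracketing concentrations, or set to the highest concentration if not reached. GI50 is the concentration that inhibits growth by half. TGI denotes the concentration required for complete inhibition of growth.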

Tests used:
Assay in all cases: NCI-60 cell line screen, 48 h
HCC-2998 colon = test system: HCC-2998 colon
NCI-H226 lung = test system: NCI-H226 lung
MCF7 breast = test system: MCF7 breast
ACHN renal = test system: ACHN renal
HL-60(TB) leukemia = test system: HL-60(TB) leukemia
SF-539 CNS = test system: SF-539 CNS
CCRF-CEM leukemia = test system: CCRF-CEM leukemia
SK-OV-3 ovarian = test system: SK-OV-3 ovarian
LOX IMVI melanoma = test system: LOX IMVI melanoma
BT-549 breast = test system: BT-549 breast

COc1ccc(/C=C/[N+](=O)[O-])cc1
TGI (HCC-2998 colon): 2.73 µM | TGI (NCI-H226 lung): 17.4 µM | TGI (MCF7 breast): 5.83 µM | TGI (ACHN renal): 32.4 µM | TGI (HL-60(TB) leukemia): 8.82 µM | TGI (SF-539 CNS): 4.92 µM

CCCCCCCCCCCCCCCCOCCCOP(=O)(O)C1CCCN(O)C1=O (stereo unspecified)
GI50 (HCC-2998 colon): 1.11 µM | TGI (HCC-2998 colon): 14.6 µM | GI50 (NCI-H226 lung): 2.1 µM | TGI (NCI-H226 lung): 14.3 µM | GI50 (MCF7 breast): 3.39 µM | TGI (MCF7 breast): 20 µM | GI50 (ACHN renal): 3.2 µM | TGI (ACHN renal): 14.2 µM | GI50 (CCRF-CEM leukemia): 0.553 µM | TGI (CCRF-CEM leukemia): 30 µM | GI50 (HL-60(TB) leukemia): 1.31 µM | TGI (HL-60(TB) leukemia): 10.3 µM | GI50 (SF-539 CNS): 3.02 µM | TGI (SF-539 CNS): 11 µM | GI50 (SK-OV-3 ovarian): 3.62 µM | TGI (SK-OV-3 ovarian): 16.7 µM | GI50 (LOX IMVI melanoma): 2.86 µM | TGI (LOX IMVI melanoma): 11.4 µM

Nc1nncs1
TGI (BT-549 breast): > 5000 µM | TGI (HCC-2998 colon): > 5000 µM | TGI (NCI-H226 lung): > 5000 µM | TGI (MCF7 breast): > 5000 µM | TGI (ACHN renal): > 5000 µM | TGI (CCRF-CEM leukemia): > 5000 µM | TGI (HL-60(TB) leukemia): > 5000 µM | TGI (SF-539 CNS): > 5000 µM | TGI (SK-OV-3 ovarian): 928 µM | TGI (LOX IMVI melanoma): > 5000 µM

O=C(O)CNCc1c2ccccc2[n+]([O-])c2ccccc12
TGI (HCC-2998 colon): > 100 µM | TGI (NCI-H226 lung): > 100 µM | TGI (ACHN renal): > 100 µM | TGI (CCRF-CEM leukemia): > 100 µM | TGI (HL-60(TB) leukemia): 91.1 µM | TGI (SK-OV-3 ovarian): > 100 µM | TGI (LOX IMVI melanoma): > 100 µM

CSc1sc(=S)sc1SC
TGI (HCC-2998 colon): > 100 µM | TGI (NCI-H226 lung): > 100 µM | TGI (MCF7 breast): > 100 µM | TGI (CCRF-CEM leukemia): > 100 µM | TGI (HL-60(TB) leukemia): > 31.6 µM | TGI (SF-539 CNS): > 100 µM | TGI (SK-OV-3 ovarian): > 100 µM | TGI (LOX IMVI melanoma): > 100 µM

COC1/C=C\OC2(C)Oc3c(C)c(O)c4c(O)c(c(CN(C)C)c(O)c4c3C2=O)NC(=O)/C(C)=C\C=C/C(C)C(O)C(C)C(O)C(C)C(OC(C)=O)C1C (stereo unspecified)
TGI (BT-549 breast): > 100 µM | TGI (HCC-2998 colon): 55.8 µM | TGI (NCI-H226 lung): > 100 µM | TGI (MCF7 breast): 34.8 µM | TGI (ACHN renal): > 100 µM | TGI (HL-60(TB) leukemia): 50.8 µM | TGI (SF-539 CNS): 45.5 µM | TGI (SK-OV-3 ovarian): > 100 µM | TGI (LOX IMVI melanoma): 35 µM

C[C@H](CCC1=NCCN1)[C@H]1CC[C@H]2[C@@H]3CC[C@@H]4C[C@H](O)CC[C@]4(C)[C@H]3CC[C@]12C
TGI (BT-549 breast): 33.4 µM | TGI (HCC-2998 colon): 24.6 µM | TGI (NCI-H226 lung): 28.2 µM | TGI (MCF7 breast): > 57.4 µM | TGI (ACHN renal): 24.2 µM | TGI (CCRF-CEM leukemia): 14.2 µM | TGI (SF-539 CNS): > 58.1 µM | TGI (SK-OV-3 ovarian): 45.3 µM | TGI (LOX IMVI melanoma): 4.76 µM

COC(=O)c1nc2c3c(cccc3c1C(=O)OC)Nc1ccccc1-2
TGI (BT-549 breast): > 100 µM | TGI (HCC-2998 colon): > 100 µM | TGI (NCI-H226 lung): > 100 µM | TGI (MCF7 breast): > 100 µM | TGI (ACHN renal): > 100 µM | TGI (CCRF-CEM leukemia): > 100 µM | TGI (HL-60(TB) leukemia): > 100 µM | TGI (SF-539 CNS): > 100 µM | TGI (SK-OV-3 ovarian): > 100 µM | TGI (LOX IMVI melanoma): > 100 µM

NC(=O)c1cc(C2OC(CO)C(O)C2O)nn1-c1ccc([N+](=O)[O-])cc1 (stereo unspecified)
TGI (HCC-2998 colon): > 100 µM | TGI (NCI-H226 lung): > 100 µM | TGI (ACHN renal): > 100 µM | TGI (CCRF-CEM leukemia): > 100 µM | TGI (HL-60(TB) leukemia): > 100 µM | TGI (SF-539 CNS): > 100 µM | TGI (SK-OV-3 ovarian): > 100 µM | TGI (LOX IMVI melanoma): > 100 µM

O=C(O)C(Br)Cc1ccc2c(c1)OCO2 (stereo unspecified)
TGI (HCC-2998 colon): > 100 µM | TGI (ACHN renal): > 100 µM | TGI (CCRF-CEM leukemia): > 100 µM | TGI (HL-60(TB) leukemia): > 100 µM | TGI (SF-539 CNS): > 100 µM | TGI (SK-OV-3 ovarian): > 100 µM

C#C[C@@]1(O)[C@@H](CO)O[C@@H](n2cc(F)c3c(N)ncnc32)[C@@H]1O
GI50 (BT-549 breast): 0.843 µM | TGI (BT-549 breast): 4.18 µM | GI50 (HCC-2998 colon): 0.6 µM | TGI (HCC-2998 colon): 2.82 µM | GI50 (NCI-H226 lung): 0.521 µM | TGI (NCI-H226 lung): 2.63 µM | GI50 (ACHN renal): 0.24 µM | TGI (ACHN renal): > 100 µM | GI50 (CCRF-CEM leukemia): 0.338 µM | TGI (CCRF-CEM leukemia): > 100 µM | GI50 (HL-60(TB) leukemia): 0.436 µM | TGI (HL-60(TB) leukemia): 3.53 µM | GI50 (SF-539 CNS): 1.31 µM | TGI (SF-539 CNS): 5.29 µM | GI50 (SK-OV-3 ovarian): 0.285 µM | TGI (SK-OV-3 ovarian): 2.09 µM | GI50 (LOX IMVI melanoma): 0.279 µM | TGI (LOX IMVI melanoma): 1.11 µM

COc1cc2c3c(c4cc(OC)c(OC)cc4c2cc1OC)[C@H](O)[C@@H]1CCCN1C3
TGI (BT-549 breast): 9.63 µM | TGI (NCI-H226 lung): 3.64 µM | TGI (ACHN renal): 0.3 µM | TGI (CCRF-CEM leukemia): > 100 µM | TGI (HL-60(TB) leukemia): 3.49 µM | TGI (SK-OV-3 ovarian): 1.69 µM | TGI (LOX IMVI melanoma): 2.75 µM
